Measured values as given in ChEMBL document CHEMBL1146272, “Isoindolone derivatives, a new class of 5-HT2C antagonists: synthesis and biological evaluation” (Bioorg Med Chem Lett, 2007).
Activity calls are given as the source filed them. The rule behind the calls is not given here.

How the values were obtained:
[1] = target: T1, 5-hydroxytryptamine receptor 2B (Homo sapiens, UniProt P41595); assay: Agonist activity at 5HT2B receptor expressed in HEK293 cells assessed as intracellular calcium mobilisation up to 10 uM; assay type: functional, cell-based
[2] = target: T2, 5-hydroxytryptamine receptor 2A (Homo sapiens, UniProt P28223); assay: Displacement of [3H]ketanserin from 5HT2A receptor expressed in HEK293 cells; assay type: cell-based
[3] = target: T2, 5-hydroxytryptamine receptor 2A; assay: Agonist activity at 5HT2A receptor expressed in HEK293 cells assessed as intracellular calcium mobilisation up to 10 uM; assay type: functional, cell-based
[4] = target: T1, 5-hydroxytryptamine receptor 2B; assay: Displacement of [3H]5-HT from 5HT2B receptor expressed in HEK293 cells; assay type: cell-based
[5] = target: T3, 5-hydroxytryptamine receptor 2C (Homo sapiens, UniProt P28335); assay: Displacement of [3H]mesulergine from 5HT2C receptor expressed in HEK293 cells; assay type: cell-based
T3 sequence (P28335 whole entry): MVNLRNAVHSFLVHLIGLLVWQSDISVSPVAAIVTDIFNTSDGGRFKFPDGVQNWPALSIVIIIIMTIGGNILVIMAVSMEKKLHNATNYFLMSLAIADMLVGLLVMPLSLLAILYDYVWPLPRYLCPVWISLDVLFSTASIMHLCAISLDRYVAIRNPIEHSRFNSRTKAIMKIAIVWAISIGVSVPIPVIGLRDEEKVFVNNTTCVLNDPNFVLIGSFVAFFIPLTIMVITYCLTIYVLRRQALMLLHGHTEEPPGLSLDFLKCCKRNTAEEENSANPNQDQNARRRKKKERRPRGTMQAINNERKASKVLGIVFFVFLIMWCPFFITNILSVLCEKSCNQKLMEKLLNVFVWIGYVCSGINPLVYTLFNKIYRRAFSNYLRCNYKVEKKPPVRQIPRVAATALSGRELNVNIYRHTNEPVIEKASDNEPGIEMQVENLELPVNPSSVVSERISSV

[6] = target: T4, 5-hydroxytryptamine receptor 2C (Homo sapiens) (UniProt P28335); assay: Agonist activity at 5HT2C receptor expressed in HEK293 cells assessed as intracellular calcium mobilisation up to 10 uM; assay type: functional, cell-based
T4 sequence (whole entry): T3 sequence (P28335 whole entry)

[7] = Volume of distribution in iv dosed rat; assay type: ADME, organism-based; settings: in vivo, read-out: Vdss
[8] = Blood clearance in iv dosed rat; assay type: ADME, organism-based; settings: whole blood
[9] = Oral bioavailability in po dosed rat; assay type: ADME, organism-based; settings: in vivo
[10] = target: T4, 5-hydroxytryptamine receptor 2C (Homo sapiens); assay: Antagonist activity at 5HT2C receptor expressed in HEK293 cells assessed as blockade of 5-hydroxytryptamine-induced intracellular calcium mobilisation; assay type: functional, cell-based

T2 sequence (P28223 whole entry): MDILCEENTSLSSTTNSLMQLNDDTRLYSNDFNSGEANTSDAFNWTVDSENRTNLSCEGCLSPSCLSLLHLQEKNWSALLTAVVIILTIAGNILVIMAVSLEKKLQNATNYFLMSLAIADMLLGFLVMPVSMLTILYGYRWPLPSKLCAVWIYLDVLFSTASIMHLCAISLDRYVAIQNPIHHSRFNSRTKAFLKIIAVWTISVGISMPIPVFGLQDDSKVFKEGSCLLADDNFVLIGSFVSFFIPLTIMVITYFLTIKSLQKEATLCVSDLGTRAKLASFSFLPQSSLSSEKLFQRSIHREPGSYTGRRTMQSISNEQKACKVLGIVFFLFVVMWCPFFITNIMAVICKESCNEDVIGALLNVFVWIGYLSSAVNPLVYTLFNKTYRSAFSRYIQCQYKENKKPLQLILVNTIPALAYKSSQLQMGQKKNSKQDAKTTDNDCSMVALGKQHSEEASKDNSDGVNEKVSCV
T1 sequence (P41595 whole entry): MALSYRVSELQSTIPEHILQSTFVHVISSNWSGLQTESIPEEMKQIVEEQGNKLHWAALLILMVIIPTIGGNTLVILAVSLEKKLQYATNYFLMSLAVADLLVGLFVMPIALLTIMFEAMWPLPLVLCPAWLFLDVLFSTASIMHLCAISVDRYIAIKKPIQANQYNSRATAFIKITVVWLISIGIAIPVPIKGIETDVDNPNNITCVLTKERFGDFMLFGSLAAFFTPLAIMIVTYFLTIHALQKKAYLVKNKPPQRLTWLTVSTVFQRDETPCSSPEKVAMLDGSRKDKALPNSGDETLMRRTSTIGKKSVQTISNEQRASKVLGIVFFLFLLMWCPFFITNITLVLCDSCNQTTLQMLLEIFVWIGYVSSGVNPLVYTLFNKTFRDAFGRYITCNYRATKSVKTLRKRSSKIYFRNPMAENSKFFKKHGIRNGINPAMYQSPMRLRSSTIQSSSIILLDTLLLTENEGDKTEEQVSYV

SMILES | Activity [1] | Ki [2] | Activity [3] | Ki [4] | Ki [5] | Activity [6] | Vd [7] | clearance [8] | bioavailability [9] | pKb [10] | Log Ki ([4]; hek293)
COc1ccc(N2Cc3c(F)c(F)cc(Cl)c3C2=O)cc1OCCN1CCC(C)CC1 | inactive | 501 nM | inactive | 126 nM | 2 nM | inactive |  |  |  |  | 
COc1ccc(N2Cc3cc(Cl)cc(Cl)c3C2=O)cc1OCCN1CCCCC1C (stereo unspecified) | inactive | > 3980 nM | inactive | > 2510 nM | 10 nM | inactive |  |  |  |  | 
COc1ccc(N2Cc3c(F)ccc(C(F)(F)F)c3C2=O)cc1OCCN1CCC(C)CC1 | inactive | > 1000 nM | inactive | > 1000 nM | 6.31 nM | inactive | 1.9 L/kg | 48 mL/min/kg | 4% |  | 
COc1ccc(N2Cc3cc(Cl)cc(Cl)c3C2=O)cc1OCCN1CCCCCC1 | inactive | 631 nM | inactive | 200 nM | 2.51 nM | inactive |  |  |  |  | 
COc1ccc(N2Cc3cccc(C#N)c3C2=O)cc1OCCN1CCC(C)CC1 | inactive | > 3160 nM | inactive | > 794 nM | 10 nM | inactive |  |  |  |  | 
COc1ccc(N2Cc3cc(Cl)c(Cl)c(C)c3C2=O)cc1OCCN1CCC(C)CC1 | inactive | 398 nM | inactive | 100 nM | 2.51 nM | inactive | 6.8 L/kg | 16 mL/min/kg | 43% |  | 
COc1ccc(N2Cc3cc(Cl)cc(Cl)c3C2=O)cc1OCCN1CCC(C)(C)CC1 | inactive | 398 nM | inactive | 251 nM | 2 nM | inactive |  |  |  |  | 
COc1ccc(N2CC=C(c3ccc(Cl)c(Cl)c3)C2=O)cc1OCCN1CCC(C)CC1 | inactive |  | inactive |  |  | inactive |  |  |  |  | 
COc1ccc(N2Cc3cc(Cl)ccc3C2=O)cc1OCCN1CCCCC1 | inactive | > 6310 nM | inactive | > 10000 nM | 50.1 nM | inactive |  |  |  | 6.9 | 
COc1ccc(N2Cc3ccc(Cl)cc3C2=O)cc1OCCN1CCC(C)CC1 | inactive | 794 nM | inactive | > 1000 nM | 20 nM | inactive |  |  |  |  | 
COc1ccc(N2Cc3cc(Cl)c(C)c(Cl)c3C2=O)cc1OCCN1CCC(C)CC1 | inactive | 631 nM | inactive | 63.1 nM | 1.26 nM | inactive | 9.1 L/kg | 43 mL/min/kg | 24% |  | 
CCOC(=O)c1ccc(N2Cc3ccccc3C2=O)cc1OCCN(CC)CC | inactive |  | inactive |  |  | inactive |  |  |  |  | 
COc1ccc(N2Cc3c(c4cc(Cl)ccc4n3C)C2=O)cc1OCCN1CCC(C)CC1 | inactive |  | inactive |  |  | inactive |  |  |  |  | 
COc1ccc(N2Cc3c(Cl)cccc3C2=O)cc1OCCN1CCC(C)CC1 | inactive | > 1580 nM | inactive |  | 126 nM | inactive |  |  |  |  | > -6.7
COc1ccc(N2Cc3cccc(Cl)c3C2=O)cc1OCCN1CCCCC1 | inactive | 1000 nM | inactive | 316 nM | 3.98 nM | inactive |  |  |  |  | 
COc1ccc(N2C(=O)c3c(Cl)cccc3C2C)cc1OCCN1CCC(C)CC1 (stereo unspecified) | inactive | > 1260 nM | inactive | 200 nM | 1.26 nM | inactive | 8.2 L/kg | 53 mL/min/kg |  |  | 
COc1ccc(N2Cc3cc(C)cc(C)c3C2=N)cc1OCCN1CCC(C)CC1 | inactive | > 3980 nM | inactive | > 3160 nM | 126 nM | inactive |  |  |  |  | 
COc1ccc(N2Cc3ccccc3C2=O)cc1OCCN1CCCCC1 | inactive | > 10000 nM | inactive | > 1580 nM | 50.1 nM | inactive |  |  |  |  | 

SMILES | Activity [1] | Ki [2] | Activity [3] | Ki [4] | Ki [5] | Activity [6] | Vd [7] | clearance [8] | bioavailability [9] | pKb [10] | Log Ki ([4]; hek293)
COc1ccc(N2Cc3ccc(Cl)cc3C2=O)cc1OCCN1CCCCC1 | inactive | > 2510 nM | inactive | > 1580 nM | 15.8 nM | inactive |  |  |  | 7.2 | 
COc1ccc(N2Cc3cccc(C(F)(F)F)c3C2=O)cc1OCCN1CCC(C)CC1 | inactive | 631 nM | inactive | 501 nM | 1.58 nM | inactive |  |  |  |  | 
COc1ccc(N2Cc3cccc(C)c3C2=O)cc1OCCN1CCC(C)CC1 | inactive | > 6310 nM | inactive | 200 nM | 2.51 nM | inactive |  |  |  |  | 
COc1ccc(N2Cc3c(Cl)cccc3C2=O)cc1OCCN1CCCCC1 | inactive | > 7940 nM | inactive | > 794 nM | 251 nM | inactive |  |  |  | 6 | 
COc1ccc(N2Cc3cc(Cl)cc(Cl)c3C2=O)cc1OCCN1CCCC(C)C1 (stereo unspecified) | inactive | > 1260 nM | inactive | 126 nM | 2.51 nM | inactive |  |  |  |  | 
COc1ccc(N2Cc3ccc(Cl)c(Cl)c3C2=O)cc1OCCN1CCC(C)CC1 | inactive | 501 nM | inactive | 100 nM | 1 nM | inactive |  |  |  |  | 
COc1ccc(N2Cc3cccc(Br)c3C2=O)cc1OCCN1CCC(C)CC1 | inactive | 631 nM | inactive | 158 nM | 0.794 nM | inactive |  |  |  | 9.3 | 
COc1ccc(N2Cc3cc(F)cc(C(F)(F)F)c3C2=O)cc1OCCN1CCC(C)CC1 | inactive | 251 nM | inactive | 251 nM | 0.398 nM | inactive |  |  |  |  | 
COc1ccc(N2Cc3cccc(F)c3C2=O)cc1OCCN1CCCCC1 | inactive | > 10000 nM | inactive | > 3160 nM | 79.4 nM | inactive |  |  |  |  | 
COc1ccc(N2Cc3cccc(Cl)c3C2=O)cc1OCCN1CCC(C)CC1 | inactive | 794 nM | inactive | 126 nM | 1.58 nM | inactive |  |  |  | 8.7 | 
COc1ccc(N2Cc3cc(C)cc(C)c3C2=O)cc1OCCN1CCC(C)CC1 | inactive | 1260 nM | inactive | 316 nM | 3.16 nM | inactive | 7.8 L/kg | 59 mL/min/kg | 10% |  | 
COc1ccc(N2Cc3cccc(OC)c3C2=O)cc1OCCN1CCCCC1 | inactive | > 6310 nM | inactive | > 7940 nM | 200 nM | inactive |  |  |  |  | 
COc1ccc(N2Cc3cc(Cl)c(Cl)cc3C2=O)cc1OCCN1CCC(C)CC1 | inactive | 501 nM | inactive | 200 nM | 5.01 nM | inactive | 8.5 L/kg | 16 mL/min/kg | 22% |  | 
COc1ccc(N2Cc3cc(Cl)ccc3C2=O)cc1OCCN1CCC(C)CC1 | inactive | > 1000 nM | inactive | > 1000 nM | 25.1 nM | inactive |  |  |  |  | 
COc1ccc(N2Cc3cc(Cl)cc(Cl)c3C2=O)cc1OCCN1[C@H](C)CCC[C@@H]1C | inactive | 316 nM | inactive | 126 nM | 6.31 nM | inactive |  |  |  |  | 
COc1ccc(N2Cc3cc(Cl)cc(Cl)c3C2=O)cc1OCCN1CCOCC1 | inactive | > 7940 nM | inactive | > 1000 nM | 12.6 nM | inactive |  |  |  |  | 
COc1ccc(N2Cc3cc(Cl)cc(Cl)c3C2=O)cc1OCCN1CCC(C)CC1 | inactive | 398 nM | inactive | 200 nM | 1.58 nM | inactive | 5.8 L/kg | 50 mL/min/kg |  | 8.8 | 
